Experimental findings from ChEMBL document CHEMBL5257078, “Alkaloids and Polyacetylenes from Hippobroma longiflora with Antiangiogenesis Properties” (J Nat Prod, 2023) are described below.

≈ marks a conversion by molar mass, not a printed value.

Series [1] is described as follows: Antiangiogenic activity in human EPC cells assessed as suppression of EPC tube formation incubated for 24 hrs by microscopic analysis. Format: functional, cell-based.
Series [2] can be described thus: Cytotoxicity against human EPC cells assessed as LDH release. Format: toxicity, cell-based.

Take `O=C(c1ccccc1)[C@H]1CN2O[C@@H]1CCC[C@H]2C[C@H](O)c1ccccc1`: the IC50 in series [1] worked out at 33.4 µg/mL (≈ 95 µM). Moreover, the Activity result in series [2] is on record as “Non-Toxic”.

Regarding `C/C=C/C#C/C=C/c1c(O)cccc1CO`, the IC50 in series [1] stood at 24.5 µg/mL (≈ 114 µM). Also, the Activity entry in series [2] is given as “Non-Toxic”.

Regarding `C[N@+]1([O-])CO[C@H](c2ccccc2)C[C@@H]1CCCCCC(=O)c1ccccc1`, the IC50 in series [1] came to 32 µg/mL (≈ 87.1 µM). In addition, the Activity result in series [2] is “Non-Toxic”.

As to `O=C(c1ccccc1)[C@@H]1CN2O[C@@H]1CCC[C@H]2C[C@H](O)c1ccccc1`, in series [1], the half-maximal inhibitory concentration (IC50) was determined as 30.6 µg/mL (≈ 87.1 µM).

As for `C/C=C/C#C/C=C\c1c(O)cccc1CO`, the IC50 in series [1] worked out at 21.1 µg/mL (≈ 98.5 µM). Further, the Activity entry in series [2] is given as “Non-Toxic”.

For the molecule `CNC(=O)c1cc(Oc2ccc(NC(=O)Nc3ccc(Cl)c(C(F)(F)F)c3)cc2)ccn1` [SORAFENIB], the IC50 in series [1] turned out to be 3.7 µg/mL (≈ 7.96 µM).

Take `C/C=C/C#C/C=C/[C@@]1(O)[C@H](CO)CC=C[C@H]1O`: the IC50 in series [1] amounted to 27.6 µg/mL (≈ 118 µM). The Activity entry in series [2] is “Non-Toxic”.

For `O=C(c1ccccc1)[C@H]1CN2O[C@H]1CCC[C@@H]2C[C@H](O)c1ccccc1`, the IC50 in series [1] was found to be 44 µg/mL (≈ 125 µM). For the same molecule, the Activity result in series [2] was “Non-Toxic”.
